Assay results reported in patent publication US20250092111A1, “POTENT AND STABLE POLYPEPTIDE ANALOGUES VIA SERINE/THREONINE LIGATION” (UNIVERSITY OF WASHINGTON, priority 2022, published 2025).

Test system: mouse model of glucose disposal
Test: Glucose tolerance test (GTT) in vivo
Settings: standard glucose tolerance test, data not shown
Protocol: Given the promising activation and stability data, the peptides were tested in vivo using a standard glucose tolerance test (GTT).

CCCCCCCCCCCCCCCCCCOCCOCCOCCOCCOCCC(=O)N[C@@H](CO)C(=O)NCCCC[C@H](NC(=O)[C@H](CO)NC(=O)[C@@H](NC(=O)[C@H](CC(=O)O)NC(=O)[C@H](CO)NC(=O)[C@@H](NC(=O)[C@H](Cc1ccccc1)NC(=O)[C@@H](NC(=O)CNC(=O)[C@H](CCC(=O)O)NC(=O)[C@H](C)NC(=O)[C@@H](N)Cc1c[nH]cn1)[C@@H](C)O)[C@@H](C)O)C(C)C)C(=O)N[C@@H](Cc1ccc(O)cc1)C(=O)N[C@@H](CC(C)C)C(=O)N[C@@H](CCC(=O)O)C(=O)NCC(=O)N[C@@H](CCC(N)=O)C(=O)N[C@@H](C)C(=O)N[C@@H](C)C(=O)N[C@@H](CCCCN)C(=O)N[C@@H](CCC(=O)O)C(=O)N[C@@H](Cc1ccccc1)C(=O)N[C@H](C(=O)N[C@@H](C)C(=O)N[C@@H](Cc1c[nH]c2ccccc12)C(=O)N[C@@H](CC(C)C)C(=O)N[C@H](C(=O)N[C@@H](CCCCN)C(=O)NCC(=O)N[C@@H](CCCNC(=N)N)C(=O)NCC(=O)O)C(C)C)[C@@H](C)CC [Peptide G2]
glucose disposal efficiency compared to unmodified GLP-1: improved glucose disposal efficiency
